Results on 2 compounds are retold here after ChEMBL document CHEMBL6182856, “Novel one-/two-photon excited carbazole/quinolinium photosensitizers manifest nanomolar and hypoxia-resistant tumor photodynamic therapy by accelerating apoptosis, ferroptosis, and autophagy” (Eur J Med Chem, 2025).

The source made the active and inactive calls. The calls are words filed in the database; no cut-off is given here. Some results are limits rather than exact numbers.

For experiment [1], the system named is 4T1. Briefly: Phototherapeutic index, ratio of IC50 for cytotoxicity against mouse 4T1 cells measured under normoxia conditions to IC50 for phototoxicity against mouse 4T1 cells measured under normoxia conditions and after one-photon excitation upon irradiation with light at 520 nm, 200 mW/cm2 for 10 mins. In kind it is functional.
Experiment [2] is described as follows: Phototherapeutic index, ratio of IC50 for cytotoxicity against human HT-29 cells measured under normoxia conditions to IC50 for phototoxicity against human HT-29 cells measured under normoxia conditions and after one-photon excitation upon irradiation with light at 520 nm, 200 mW/cm2 for 10 mins. In kind it is functional.
The test system of a further experiment is A549. Kind of experiment: Cytotoxicity against human A549 cells assessed as inhibition of cell growth incubated for 24 hrs measured under normoxia conditions by MTT assay. The format is functional, cell-based. Conditions: A549, 24 h.
Experiment [3] is described as follows: Phototoxicity against human HT-29 cells assessed as inhibition of cell growth incubated for 24 hrs measured under normoxia conditions and after one-photon excitation upon irradiation with light at 520 nm, 200 mW/cm2 for 10 mins by MTT assay. The format is functional, cell-based. Conditions: HT-29, light or radiation study.
The nature of experiment [4]: Phototoxicity against mouse 4T1 cells assessed as inhibition of cell growth incubated for 24 hrs measured under normoxia conditions and after one-photon excitation upon irradiation with light at 520 nm, 200 mW/cm2 for 10 mins by MTT assay. In kind it is functional, cell-based. Conditions: 4T1, light or radiation study.
Experiment [5] in a line: Phototoxicity against human A549 cells assessed as inhibition of cell growth incubated for 24 hrs measured under normoxia conditions and after one-photon excitation upon irradiation with light at 520 nm, 200 mW/cm2 for 10 mins by MTT assay. In kind it is functional, cell-based. Conditions: A549, light or radiation study.
Experiment [6] in a line: Photosensitizing ability of the compound in methanol assessed as singlet oxygen production by measuring quantum yield measured upon irradiation by DPBF based assay. In kind it is functional.
Experiment [7] concerns 4T1. Kind of experiment: Cytotoxicity against mouse 4T1 cells assessed as inhibition of cell growth incubated for 24 hrs measured under normoxia conditions by MTT assay. The format is functional, cell-based. The settings on record: 4T1, 24 h.
Another experiment has as its system HT-29. Kind of experiment: Cytotoxicity against human HT-29 cells assessed as inhibition of cell growth incubated for 24 hrs measured under normoxia conditions by MTT assay. The settings on record: HT-29, 24 h. The format is functional, cell-based.
A short description of experiment [8]: Photosensitizing ability of the compound assessed as superoxide radical production measured upon irradiation by DHE probe based assay. The format is functional.
The nature of experiment [9]: Photosensitizing ability of the compound assessed as hydroxyl radical production measured upon irradiation by HPF probe based assay. In kind it is functional.
The nature of experiment [10]: Phototherapeutic index, ratio of IC50 for cytotoxicity against human A549 cells measured under normoxia conditions to IC50 for phototoxicity against human A549 cells measured under normoxia conditions and after one-photon excitation upon irradiation with light at 520 nm, 200 mW/cm2 for 10 mins. In kind it is functional.

Turning to `CCn1c2ccc(/C=C/c3cc[n+](C)c4ccccc34)cc2c2cc([N+](=O)[O-])ccc21.I`, the results for the “Ratio IC50” value (in the experiment on 4T1 [1]; in experiment [2]) were 4 and 16, respectively. For the same compound, the IC50 is > 100 µM in the experiment on A549; 3.55 µM in [3]; 4.81 µM in experiment [4]; 4.11 µM in experiment [5]; 20.1 µM in the experiment with 4T1 [7]; 59.4 µM in the experiment with HT-29. In addition, the Activity in experiment [6] amounted to 0.13. Moreover, the result in experiment [8] and in experiment [9] was Active.

As for `CCn1c2ccc(N)cc2c2cc(/C=C/c3cc[n+](C)c4ccccc34)ccc21.[I-]`, the “Ratio IC50” value in the experiment with 4T1 [1] was found to be 5; in experiment [2] it was 7; in experiment [10], 10. For the same compound, the IC50 is 22.4 µM in the experiment with A549; 2.77 µM in experiment [3]; 3.66 µM in experiment [4]; 2.23 µM in [5]; 20.3 µM in the experiment on 4T1 [7]; 19.3 µM in the experiment on HT-29. The Activity in experiment [6] turned out to be 0.04. In addition, the result in [8] and in experiment [9] was Active.
